# Measured values published in patent US4289762A, “10-(1,2-Propadienyl) steroids as irreversible aromatase inhibitors” (Merrell Dow Pharmaceuticals Inc., priority 1980, dated 1981).
# Where “and” joins values, the source holds several entries; their conditions need not be identical. Equal values may be shown once. Entries after “also recorded” stand apart in the source; their conditions may differ. Read-outs that look alike come from different tables or passages of the source.
# Legend:
# Experiment in all cases: biochemical
# [1] = biological target: T1, aromatase (Homo sapiens, UniProt P11511); type: human (placenta microsomal fraction); settings: for inhibition at 0.25 µM: inhibitor 0.25 uM; for inhibition at 0.25 µM / inhibition at 2.5 µM / inhibition at 0.1 µM / inhibition at 1 µM: read-out: Percent Inhibition; for inhibition at 2.5 µM: inhibitor 2.5 uM; for inhibition at 0.1 µM: inhibitor 0.1 uM; for inhibition at 1 µM: inhibitor 1.0 uM
# T1 construct: microsomal fraction isolated from human placenta; from tissue; host or cells: human placenta, microsomal fraction
# T1 sequence (P11511 1-503): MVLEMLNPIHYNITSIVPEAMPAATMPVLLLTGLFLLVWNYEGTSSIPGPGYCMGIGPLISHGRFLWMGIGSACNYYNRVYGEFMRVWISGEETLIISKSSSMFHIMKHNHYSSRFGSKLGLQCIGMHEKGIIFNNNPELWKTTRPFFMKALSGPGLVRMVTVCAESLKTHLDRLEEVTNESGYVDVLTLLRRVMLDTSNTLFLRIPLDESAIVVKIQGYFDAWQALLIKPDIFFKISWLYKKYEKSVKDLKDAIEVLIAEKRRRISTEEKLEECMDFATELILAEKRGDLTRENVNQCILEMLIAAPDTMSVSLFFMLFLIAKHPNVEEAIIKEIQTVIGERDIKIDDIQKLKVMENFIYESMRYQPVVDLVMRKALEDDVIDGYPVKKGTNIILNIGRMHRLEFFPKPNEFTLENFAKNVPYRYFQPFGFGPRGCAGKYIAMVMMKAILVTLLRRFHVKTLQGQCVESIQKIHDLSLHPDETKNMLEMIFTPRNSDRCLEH
# Method: In this assay, the inhibitor is preincubated with the enzyme prior to assaying for enzyme activity in the presence of high substrate levels.
# (§1) In the time-dependent assay, an amount of the enzyme inhibitor in 100 ul of the assay buffer described above which will provide assay concentrations which are approximately one and ten times the IC50 values are added to 35 ml centrifuge tubes containing 600 ul of the NADPH generating system described above. […] These preparations are mixed using a vortex mixer and incubated for 0, 10, 20 or 40 minutes at 25° C. […] Following vortexing, the enzyme incubation is continued for 10 minutes before being terminated by the addition of chloroform. The amount of radioactivity in the aqueous fraction is determined by scintillation procedures. […] Therefore, the percent enzyme inhibition is expressed as a percentage of the 100 percent enzyme activity value.
# [2] = biological target: T1, aromatase; type: human (placenta microsomal fraction); settings: for Ki: time-dependent assay, Table 2, read-out: Apparent Ki
# Method: as §1
# Compounds which show time-dependent inhibition are then assayed to establish the inhibition constant, Ki, which is the apparent dissociation constant for the enzyme-inhibitor complex. This determination requires measurements at initial velocities of enzyme reaction. […] The enzyme half-life (t1/2) at these different inhibitor concentrations ([In]) is used to determine the Ki by the linear regression equation of the t1/2 vs. 1/[In]. The Ki is equivalent to the inhibitor concentration when t1/2 is equal to zero.
# [3] = biological target: T1, aromatase; type: biochemical, human (placenta microsomal fraction)
# Method: Assay buffer contains 100 mM KCl, 10 mM KH2 PO4, 10 mM dithiothreitol and 1 mM EDTA at pH 8.0. […] These preparations are mixed using a vortex mixer and incubated for 30 minutes at 37° C. with a 95% O2 :5% CO2 gas phase in a Dubinoff shaking incubator.
# The enzymatic reaction is terminated by the addition of 10 ml of CHCl3. After vortexing for 20 sec., aqueous/organic emulsions are dispersed and phase separation achieved following centrifugation at 600×g for 10 min. Duplicate 500 ul samples of the upper aqueous phase of each incubation sample are added to 10×75 mm culture tubes. To these tubes, 500 ul of cold 0.25% dextran-coated charcoal suspension is added, vortexed, incubated for 15 min. at 4° C., then centrifuged at 2600×g in a refrigerated centrifuge (4° C.). The supernatant fraction is decanted into a 20 ml scintillation vial and 15 ml of aqueous scintillation cocktail is added. The radioactivity of ^3 H2 O resulting from liberated 1 and 2 tritium atoms during the enzymatic reaction is determined by counting for 10 min. in a liquid scintillation counter. This assay procedure is adapted from the procedures of Reed et al, J. Biol. Chem., 251, 1625 (1976), and Thompson et al, J. Biol. Chem., 249, 5364 and 5374 (1974).
structure (smiles),measurement,setting,value
"C=C=C[C@]12CCC(=O)C=C1CC[C@@H]1[C@@H]2CC[C@]2(C)C(=O)CC[C@@H]12 [10-(1,2-propadienyl)estr-4-ene-3,17-dione]",Activity compared with known therapeutic agents / known aromatase inhibitors,[1],superior activity to known therapeutic agents; also recorded: superior to known aromatase inhibitors
same,Time-dependent inhibition of aromatase,[1],significant time-dependent inhibition of aromatase
same,Percent Inhibition,[1]; 1 µM,50.2 and 69.2 and 84.0
same,Affinity for the enzyme site relative to natural substrate testosterone (times greater),[2],three times greater
same,Binding to the enzyme,[2],irreversibly bound to the enzyme
same,Factor by which enzyme affinity exceeds that of 1-dehydrotestololactone,[2],58.1
same,Factor by which enzyme affinity exceeds that of aminoglutethimide,[2],"1,491.2"
same,"Factor by which enzyme affinity exceeds that of androsta-1,4,6-triene-3,17-dione",[2],8.1
same,Enzyme affinity compared with other known inhibitors,[3],greater enzyme affinity than other known inhibitors
"C[C@]12C=CC(=O)C=C1CC[C@@H]1[C@@H]2CC[C@]2(C)OC(=O)CC[C@@H]12 [1-dehydrotestololactone, 1,2,3,4,4a,4b,7,9,10,10a-Decahydra-2-hydroxy-2,4b-dimethyl-7oxo-l-phenanthrene-propionic acid O-lactone]",inhibition at 0.25 µM,[1]; preincubation 0 minutes,0%
same,inhibition at 0.25 µM,[1]; preincubation 20 minutes,3.6%
same,inhibition at 0.25 µM,[1]; preincubation 40 minutes,36.1%
same,inhibition at 2.5 µM,[1]; preincubation 0 minutes,24.7%
same,inhibition at 2.5 µM,[1]; preincubation 20 minutes,82.7%
same,inhibition at 2.5 µM,[1]; preincubation 40 minutes,96.9%
same,Ki,[2],7.9 µM
same,IC50,[3],2.5 µM
"C[C@]12C=CC(=O)C=C1C=C[C@@H]1[C@@H]2CC[C@]2(C)C(=O)CC[C@@H]12 [Androsta-1,4,6-triene-3,17-dione]",inhibition at 0.1 µM,[1]; preincubation 0 minutes,20.5%
same,inhibition at 0.1 µM,[1]; preincubation 20 minutes,45.5%
same,inhibition at 0.1 µM,[1]; preincubation 40 minutes,54.8%
same,inhibition at 1 µM,[1]; preincubation 0 minutes,88.8%
same,inhibition at 1 µM,[1]; preincubation 20 minutes,92.8%
same,inhibition at 1 µM,[1]; preincubation 40 minutes,95.2%
same,Ki,[2],0.11 µM
same,IC50,[3],0.1 µM
